# US11000485B2, “Substituted hydroxystilbenes as AhR and Nrf2 modulators and their therapeutic applications” (Resolvex Pharmaceuticals Inc., priority 2017, dated 2021)
# Columns and labels:
# Jurkat cells [1] = assay: Cell viability (MTS); assay type: cell-based; conditions: 48 hours
# Protocol: (§1) Cells were cultured in RPMI-1640 containing 10% FBS (Jurkat and THP-1) or DMEM containing 10% FBS (A549 and MDA-MB-435). On Day 1, 1-5×10^4 cells per well in 100 μL of the cell culture medium containing 0.5% FBS were seeded into a 96-well flat bottom plate. On Day 2, the test compounds were added to the culture at different concentrations in triplicates. The controls include triplicates of no compound treatment and cell culture medium without cells. The cells were incubated at 5% CO2, 37° C. for 48 hours. On Day 4, MTS reagent was added to each well and incubated at 37° C. for 4 hours. The absorbance was read at 490 nm. The percentage of inhibition was calculated using the formula: [1-(experiment reading-background reading)/(negative control reading-background reading)]×100.
# MDA-MB-435 cells [2] = assay: Cell viability (MTS); assay type: cell-based
# Protocol: as §1
# THP1 cells = assay: Cell viability (MTS); assay type: cell-based
# Protocol: as §1
# Jurkat cells [3] = assay: Cell proliferation ([3H]-thymidine); assay type: cell-based; conditions: 48 hours, read-out: Anti-proliferation IC50, Jurkat
# Protocol: (§2) Cells were cultured in RPMI-1640 containing 10% FBS (Jurkat) or DMEM containing 10% FBS (MDA-MB-435). On Day 1, 1×10^4 cells were seeded into one well of a 96-well white ISOPLATE™ with 0.5% FBS. The cells were cultured at 5% CO2, 37° C. overnight. On Day 2, the diluted test compounds were added into each well in a total volume of 100 μL of cell culture medium. For each cell line were set up three wells containing cells and only diluted DMSO as a negative (vehicle) control, and three wells without cells but containing the same volume and type of cell culture medium as background control. The cells were incubated at 5% CO2, 37° C. for 24 hours. On Day 3, 1 μL of [^3H]-thymidine was added into each well and incubation at 5% CO2, 37° C. was continued for another 24 hours. On Day 4, 30 μL of 50% TCA was added into each well and was incubated at 4° C. for 4 hours. Plates were washed with ddH2O four times and then air dried for 30 minutes followed by the addition of 100 μL of scintillation fluid into each well. The radioactivity was read using MICROBETA TRILUX™. The percentage of inhibition was calculated using the formula [1-(experiment reading-background reading)/(negative control reading-background reading)]×100.
# MDA-MB-435 cells [4] = assay: Cell proliferation ([3H]-thymidine); assay type: cell-based; conditions: read-out: Anti-proliferation IC50, MDA-MB-435
# Protocol: as §2
# [5] = target: T1, recombinant human PDE4B1 enzyme (Homo sapiens, UniProt Q07343); assay: PDE4B1 radiometric enzyme assay; assay type: biochemical; conditions: for Inhibitory activity on PDE4B1 enzyme: 1 μM cAMP
# T1 construct: host or cells: baculoviral system
# T1 sequence (Q07343 whole entry): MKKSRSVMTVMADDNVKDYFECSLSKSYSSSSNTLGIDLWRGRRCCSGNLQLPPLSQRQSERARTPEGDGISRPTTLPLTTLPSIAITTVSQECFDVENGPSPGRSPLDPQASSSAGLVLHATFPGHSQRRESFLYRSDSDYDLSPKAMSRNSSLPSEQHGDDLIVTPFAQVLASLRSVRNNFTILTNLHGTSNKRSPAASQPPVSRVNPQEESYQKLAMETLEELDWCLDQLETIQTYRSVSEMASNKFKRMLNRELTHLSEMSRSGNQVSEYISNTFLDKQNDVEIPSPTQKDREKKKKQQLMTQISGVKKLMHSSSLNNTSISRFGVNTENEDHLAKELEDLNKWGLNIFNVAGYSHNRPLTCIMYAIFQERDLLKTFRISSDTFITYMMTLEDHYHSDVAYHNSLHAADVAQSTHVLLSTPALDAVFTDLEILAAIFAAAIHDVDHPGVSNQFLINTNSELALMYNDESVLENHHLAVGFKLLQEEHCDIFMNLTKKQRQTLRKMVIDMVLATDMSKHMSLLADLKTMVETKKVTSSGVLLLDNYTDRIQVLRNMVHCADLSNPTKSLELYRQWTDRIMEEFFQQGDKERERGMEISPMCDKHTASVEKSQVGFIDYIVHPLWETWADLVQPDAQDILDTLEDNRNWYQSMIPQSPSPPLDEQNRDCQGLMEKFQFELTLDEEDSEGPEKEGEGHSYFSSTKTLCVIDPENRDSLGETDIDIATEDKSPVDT
# Protocol: Assays were performed using recombinant human PDE4B1 enzyme expressed in a baculoviral system. […] The reactions were performed at 1 μM of cAMP. The test articles were each tested at 0.2 μM and 20 μM in triplicates.
# A549 cells = assay: Cell viability (MTS); assay type: cell-based
# Protocol: as §1
# AMPK (A1/B1/G1) = AMPK (A1/B1/G1) (Homo sapiens, UniProt Q13131); assay: Kinase profiling, recombinant kinase; assay type: biochemical; conditions: 5 uM ATP
# AKT1 = AKT1 (Homo sapiens, UniProt P31749); assay: Kinase profiling, recombinant kinase; assay type: biochemical; conditions: 5 uM ATP
# Protocol: (§3) Kinase profiling was conducted using different recombinant kinase targets against the compounds at 5 uM ATP. The kinases tested included AKT1 (RAC-alpha serine/threonine-protein kinas 1), JAK2, JAK3, p38α, p38β (p38 mitogen-activated protein kinase beta), GSK3β, SYK (Spleen tyrosine kinase), LCK, IKKα and IKKβ and CLK4. The test compounds were tested at 5 μM and 50 μM in triplicates.
# CLK4 = CLK4 (Homo sapiens, UniProt Q9HAZ1); assay: Kinase profiling, recombinant kinase; assay type: biochemical; conditions: 5 uM ATP
# Protocol: as §3
# GSK3 β = GSK3 β (Homo sapiens, UniProt P49841); assay: Kinase profiling, recombinant kinase; assay type: biochemical; conditions: 5 uM ATP
# GSK3 β, sequence (P49841 whole entry, species assumed): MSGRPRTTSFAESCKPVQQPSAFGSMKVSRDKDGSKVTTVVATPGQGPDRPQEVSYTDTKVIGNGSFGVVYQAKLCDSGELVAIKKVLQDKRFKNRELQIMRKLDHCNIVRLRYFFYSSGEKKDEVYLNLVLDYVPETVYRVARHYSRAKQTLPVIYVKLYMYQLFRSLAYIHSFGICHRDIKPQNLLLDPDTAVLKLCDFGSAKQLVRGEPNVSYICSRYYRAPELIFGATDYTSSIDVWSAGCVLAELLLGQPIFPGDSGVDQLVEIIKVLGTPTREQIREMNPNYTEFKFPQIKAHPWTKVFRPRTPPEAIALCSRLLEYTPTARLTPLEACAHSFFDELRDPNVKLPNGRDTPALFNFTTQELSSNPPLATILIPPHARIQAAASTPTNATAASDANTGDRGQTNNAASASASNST
# Protocol: as §3
# IKK α = IKK α (Homo sapiens, UniProt O15111); assay: Kinase profiling, recombinant kinase; assay type: biochemical; conditions: 5 uM ATP
# Protocol: as §3
# IKK β = IKK β (Homo sapiens, UniProt O14920); assay: Kinase profiling, recombinant kinase; assay type: biochemical; conditions: 5 uM ATP
# Protocol: as §3
# JAK2 = JAK2 (Homo sapiens, UniProt O60674); assay: Kinase profiling, recombinant kinase; assay type: biochemical; conditions: 5 uM ATP
# JAK2, sequence (O60674 whole entry, species assumed): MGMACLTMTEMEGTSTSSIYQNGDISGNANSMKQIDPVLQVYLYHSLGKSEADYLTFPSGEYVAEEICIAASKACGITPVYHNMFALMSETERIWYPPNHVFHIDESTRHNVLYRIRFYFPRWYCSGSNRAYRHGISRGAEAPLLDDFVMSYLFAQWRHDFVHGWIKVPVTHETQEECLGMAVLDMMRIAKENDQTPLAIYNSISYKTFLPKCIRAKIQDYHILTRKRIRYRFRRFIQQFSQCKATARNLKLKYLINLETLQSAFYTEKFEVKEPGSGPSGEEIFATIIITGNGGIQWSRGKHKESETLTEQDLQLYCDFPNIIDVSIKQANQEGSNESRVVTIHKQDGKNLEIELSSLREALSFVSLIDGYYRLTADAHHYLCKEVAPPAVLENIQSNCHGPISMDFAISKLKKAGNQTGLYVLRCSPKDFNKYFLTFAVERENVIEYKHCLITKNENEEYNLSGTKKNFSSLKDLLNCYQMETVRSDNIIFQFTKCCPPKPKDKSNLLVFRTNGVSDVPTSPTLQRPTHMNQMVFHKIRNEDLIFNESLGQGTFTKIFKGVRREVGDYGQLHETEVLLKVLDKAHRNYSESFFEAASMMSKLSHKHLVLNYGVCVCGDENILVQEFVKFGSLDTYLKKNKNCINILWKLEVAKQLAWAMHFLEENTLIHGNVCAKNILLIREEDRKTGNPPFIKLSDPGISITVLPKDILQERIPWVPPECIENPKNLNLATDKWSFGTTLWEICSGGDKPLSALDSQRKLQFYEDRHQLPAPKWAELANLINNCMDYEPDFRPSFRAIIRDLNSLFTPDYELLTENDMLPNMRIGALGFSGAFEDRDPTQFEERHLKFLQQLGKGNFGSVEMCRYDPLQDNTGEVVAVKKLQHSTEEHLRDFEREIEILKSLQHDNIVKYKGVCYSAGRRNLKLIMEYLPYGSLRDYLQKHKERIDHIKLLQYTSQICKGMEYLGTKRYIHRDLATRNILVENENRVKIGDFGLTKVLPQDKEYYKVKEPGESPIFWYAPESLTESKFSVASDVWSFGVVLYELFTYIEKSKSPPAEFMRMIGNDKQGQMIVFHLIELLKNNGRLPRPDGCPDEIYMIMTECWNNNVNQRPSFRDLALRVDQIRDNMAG
# Protocol: as §3
# JAK3 = JAK3 (Homo sapiens, UniProt P52333); assay: Kinase profiling, recombinant kinase; assay type: biochemical; conditions: 5 uM ATP
# JAK3, sequence (P52333 whole entry, species assumed): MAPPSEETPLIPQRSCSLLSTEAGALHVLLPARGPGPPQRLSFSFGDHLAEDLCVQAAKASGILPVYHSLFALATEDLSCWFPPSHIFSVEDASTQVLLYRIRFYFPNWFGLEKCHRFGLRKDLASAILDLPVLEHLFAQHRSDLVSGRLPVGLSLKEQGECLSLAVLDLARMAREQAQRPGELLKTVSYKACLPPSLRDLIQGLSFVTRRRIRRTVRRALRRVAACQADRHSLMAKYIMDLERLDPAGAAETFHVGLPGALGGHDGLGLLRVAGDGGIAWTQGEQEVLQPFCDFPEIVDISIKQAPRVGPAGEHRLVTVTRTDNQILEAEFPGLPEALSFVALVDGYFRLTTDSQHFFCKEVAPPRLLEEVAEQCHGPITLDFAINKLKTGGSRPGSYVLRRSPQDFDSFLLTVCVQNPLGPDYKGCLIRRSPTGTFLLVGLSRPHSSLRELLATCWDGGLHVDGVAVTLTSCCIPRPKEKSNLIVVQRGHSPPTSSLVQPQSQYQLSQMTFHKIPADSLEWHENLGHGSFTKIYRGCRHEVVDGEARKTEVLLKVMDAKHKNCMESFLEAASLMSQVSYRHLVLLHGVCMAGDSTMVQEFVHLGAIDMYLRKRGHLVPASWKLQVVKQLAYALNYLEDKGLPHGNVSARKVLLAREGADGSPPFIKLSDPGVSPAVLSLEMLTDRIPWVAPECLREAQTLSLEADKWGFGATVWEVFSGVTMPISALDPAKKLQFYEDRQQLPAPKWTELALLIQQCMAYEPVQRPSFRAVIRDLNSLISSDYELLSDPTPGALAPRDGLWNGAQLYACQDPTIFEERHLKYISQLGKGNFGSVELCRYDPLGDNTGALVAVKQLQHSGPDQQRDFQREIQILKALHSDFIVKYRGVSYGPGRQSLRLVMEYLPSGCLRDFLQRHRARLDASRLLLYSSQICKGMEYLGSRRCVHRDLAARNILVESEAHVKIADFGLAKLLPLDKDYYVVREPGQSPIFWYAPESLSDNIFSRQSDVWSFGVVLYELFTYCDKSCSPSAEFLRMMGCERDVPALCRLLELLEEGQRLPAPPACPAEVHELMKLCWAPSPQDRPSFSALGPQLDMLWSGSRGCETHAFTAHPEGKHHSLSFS
# Protocol: as §3
# LCK = LCK (Homo sapiens, UniProt P06239); assay: Kinase profiling, recombinant kinase; assay type: biochemical; conditions: 5 uM ATP
# LCK, sequence (P06239 whole entry, species assumed): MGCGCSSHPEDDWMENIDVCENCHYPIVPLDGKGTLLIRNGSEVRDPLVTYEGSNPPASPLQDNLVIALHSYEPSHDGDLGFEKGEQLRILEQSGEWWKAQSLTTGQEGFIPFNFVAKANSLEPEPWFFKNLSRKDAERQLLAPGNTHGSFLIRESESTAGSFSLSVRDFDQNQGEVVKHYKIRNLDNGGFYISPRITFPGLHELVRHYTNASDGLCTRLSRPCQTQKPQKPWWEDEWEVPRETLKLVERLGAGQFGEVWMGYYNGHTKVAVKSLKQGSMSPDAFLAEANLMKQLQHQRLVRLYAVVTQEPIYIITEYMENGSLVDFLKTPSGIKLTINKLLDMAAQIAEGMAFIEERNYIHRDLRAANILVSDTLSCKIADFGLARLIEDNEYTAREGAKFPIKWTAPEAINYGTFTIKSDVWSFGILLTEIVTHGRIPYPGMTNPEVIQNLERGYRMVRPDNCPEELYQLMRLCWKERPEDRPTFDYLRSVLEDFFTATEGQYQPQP
# Protocol: as §3
# SYK = SYK (Homo sapiens, UniProt P43405); assay: Kinase profiling, recombinant kinase; assay type: biochemical; conditions: 5 uM ATP
# Protocol: as §3
# p38 α = p38 α (Homo sapiens, UniProt Q16539); assay: Kinase profiling, recombinant kinase; assay type: biochemical; conditions: 5 uM ATP
# p38 α, sequence (Q16539 whole entry): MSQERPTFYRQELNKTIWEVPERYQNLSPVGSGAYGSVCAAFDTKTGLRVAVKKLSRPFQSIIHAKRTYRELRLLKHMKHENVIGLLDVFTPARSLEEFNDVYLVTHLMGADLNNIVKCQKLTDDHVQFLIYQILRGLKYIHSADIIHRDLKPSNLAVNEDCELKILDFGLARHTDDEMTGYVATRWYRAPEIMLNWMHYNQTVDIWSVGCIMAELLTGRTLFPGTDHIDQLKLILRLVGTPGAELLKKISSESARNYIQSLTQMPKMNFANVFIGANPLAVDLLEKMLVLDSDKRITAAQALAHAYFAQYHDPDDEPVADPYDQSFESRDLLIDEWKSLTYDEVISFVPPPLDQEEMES
# Protocol: as §3
# p38 β = p38 β (Homo sapiens, UniProt Q15759); assay: Kinase profiling, recombinant kinase; assay type: biochemical; conditions: 5 uM ATP
# p38 β, sequence (Q15759 whole entry): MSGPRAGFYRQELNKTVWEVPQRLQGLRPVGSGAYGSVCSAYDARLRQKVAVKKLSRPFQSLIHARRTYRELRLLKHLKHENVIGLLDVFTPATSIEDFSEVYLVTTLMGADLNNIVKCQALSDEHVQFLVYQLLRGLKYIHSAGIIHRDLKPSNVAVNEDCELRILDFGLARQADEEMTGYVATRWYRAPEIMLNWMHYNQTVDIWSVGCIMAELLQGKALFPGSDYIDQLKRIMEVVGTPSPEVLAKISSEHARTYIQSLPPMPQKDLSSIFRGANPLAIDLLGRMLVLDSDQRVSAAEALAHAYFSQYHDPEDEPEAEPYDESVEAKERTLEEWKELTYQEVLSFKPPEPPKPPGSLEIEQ
# Protocol: as §3
# [6] = test system: dextran sodium sulphate (DSS) induced model of inflammatory bowel disease (IBD)/colitis; assay: DSS induced model of IBD/colitis; assay type: in vivo, female Balb/c mice; conditions: Day 0 to Day 8, DSS control group 24.2+5.7, normal control 1.9+2.4
# Protocol: The efficacy of Compound 2 was tested in a dextran sodium sulphate (DSS) induced model of inflammatory bowel disease (IBD)/colitis in female Balb/c mice. Rolipram was used as a positive control in this experiment. Colitis was induced in the mice by providing drinking water containing DSS (3.5%, M. Wt. 30,000-50,000) from Day 0 to Day 8. The test compounds were administered as per their respective groups at specific dose levels starting from Day 0 through to Day 8. […] For dosing, Compound 2 was dissolved in vehicle (1.5% Cremophor EL) at 3 mg/mL and 1 mg/mL for the 30 and 10 mg/kg doses, respectively. […] All doses were administered by oral gavage.
# There was a considerable increase in disease activity index (DAI) (cumulative scores of body weight, stool consistency and rectal bleeding) in the DSS control group (24.2+5.7) when compared to normal control group (1.9+2.4) which indicated very good disease induction.
# [7] = target: T2, Aryl Hydrocarbon Receptor (AhR) (Homo sapiens, UniProt P35869); assay: AhR-CYP1A1-bla LS-180 beta-lactamase reporter assay; assay type: cell-based; conditions: AhR-CYP1A1-bla LS-180 cells, 24 hours; read-out: EC50, AhR activation
# T2 construct: host or cells: AhR-CYP1A1-bla LS-180
# Protocol: This assay was performed using Invitrogen's CellSensor® cell line AhR-CYP1A1-bla LS-180 with GeneBLAzer® Beta-lactamase (bla) Reporter Technology as the detection method. When the AhR-CYP1A1 pathway is activated or inhibited, Beta-lactamase reporter activity is modulated and is measured quantitatively and selectively with the LiveBLAzer™-FRET B/G Loading Substrate.
# Briefly, the AhR-CYP1A1-bla LS-180 cells were grown in Growth Media (MEM, 10% FBS, 0.1 mM NEAA, 1 mM Sodium Pyruvate). Cells were dissociated and resuspended in Assay Media (OPTI-MEM, 0.5% dialyzed FBS, 0.1 mM NEAA, 1 mM Sodium Pyruvate). Around 2×10^4 cells in a volume of 32 μL of assay media was added to each well of a 384 well Poly-D-Lysine assay plate. After incubation for 16 hours at 37° C. in a humidified incubator, 4 μL of a 10× serial dilution of test compounds were added to appropriate wells of the plate. The plate was incubated for 24 hours at 37° C. For the reporter activity assay, 8 μL of 1 μM Substrate was added to each well and the plate was incubated for 2 hours at room temperature. The plate was read on a fluorescence plate reader.
# ICAM-1 = assay: BioMap BF4T lung epithelium inflammation system; assay type: cell-based; conditions: stimulated human primary bronchial epithelial cells, 24 hours, ELISA
# Protocol: (§4) The compounds were assayed in the Eurofin's BioMap system (BF4T Cells) which models Th2-type lung inflammation, an environment that promotes the recruitment of eosinophils, mast cells, neutrophils, and basophils as well as effector memory T cells. This system is relevant for allergy and asthma, pulmonary fibrosis, as well as chronic obstructive pulmonary disorder (COPD) exacerbations. The human primary bronchial epithelial cells were cultured and stimulated to induce the inflammatory factors responsible for the pathogenesis of various inflammatory diseases in the lung. The test compounds were added to the in vitro model culture system and incubated for 24 hours. The supernatants were collected and assayed for the protein production of various molecules using ELISA assays. The biomarkers assayed included MCP-1, Eotaxin-3, VCAM-1, ICAM-1, CD90, IL-8, IL1α, Keratin 8/18, MMP1, MMP-3, MMP-9, PAI-1, SRB, tPA, and uPA.
# IL-1α = assay: BioMap BF4T lung epithelium inflammation system; assay type: cell-based; conditions: stimulated human primary bronchial epithelial cells, 24 hours, ELISA
# Protocol: as §4
# IL-8 = assay: BioMap BF4T lung epithelium inflammation system; assay type: cell-based; conditions: stimulated human primary bronchial epithelial cells, 24 hours, ELISA
# Protocol: as §4
# VCAM-1 = assay: BioMap BF4T lung epithelium inflammation system; assay type: cell-based; conditions: stimulated human primary bronchial epithelial cells, 24 hours, ELISA
# Protocol: as §4
# [8] = Homo sapiens, MDA-MB-435, 48 hours
# [9] = read-out: Inhibitory activity on PDE4B1 enzyme
structure (smiles),measurement,setting,value
Oc1cc(/C=C/c2ccc(F)cc2F)ccc1C1CCCC1 [Compound 21],IC50,Jurkat cells [1],3.73 µM
same,IC50,MDA-MB-435 cells [2]; 48 hours,1.95 µM
same,IC50,THP1 cells; 48 hours,6.93 µM
same,IC50,Jurkat cells [3],0.69 µM
same,IC50,MDA-MB-435 cells [4]; 48 hours,1.77 µM
Oc1cc(/C=C/c2ccc(F)cc2)ccc1C1CCCCCC1 [Compound 27],Inhibitory activity on PDE4B1 enzyme,[5]; 0.2 μM compound,+ (“+” is 15-30% inhibition)
same,Inhibitory activity on PDE4B1 enzyme,[5]; 20 μM compound,+++ (“+++” is greater than 50% inhibition)
Oc1cc(/C=C/c2ccc(F)cc2)ccc1C1CC1 [Compound 12],IC50,A549 cells; 48 hours,32 µM
same,IC50,Jurkat cells [1],1.65 µM
same,IC50,MDA-MB-435 cells [2]; 48 hours,1.62 µM
same,IC50,THP1 cells; 48 hours,15.4 µM
same,Inhibitory activity on PDE4B1 enzyme,[5]; 0.2 μM compound,+ (“+” is 15-30% inhibition)
same,Inhibitory activity on PDE4B1 enzyme,[5]; 20 μM compound,+++ (“+++” is greater than 50% inhibition)
"CC(C)c1ccc(/C=C/c2ccc(F)cc2)cc1O [Compound 2, 3-hydroxy-4-isopropyl-4′-fluoro-(E)-stilbene]",IC50,"A549 cells; Homo sapiens, A549, 48 hours",45 µM
same,IC50,"Jurkat cells [1]; Homo sapiens, Jurkat",7.6 µM
same,IC50,MDA-MB-435 cells [2]; [8],24.9 µM
same,IC50,"THP1 cells; Homo sapiens, THP-1, 48 hours",3.15 µM
same,IC50,"Jurkat cells [3]; Homo sapiens, Jurkat",1.67 µM
same,IC50,MDA-MB-435 cells [4]; [8],6.02 µM
same,inhibition at 5 µM,AMPK (A1/B1/G1); 5 μM compound,< 20%
same,inhibition at 50 µM,AMPK (A1/B1/G1); 50 μM compound,> 50%
same,inhibition at 5 µM,AKT1; 5 μM compound,< 20%
same,inhibition at 50 µM,AKT1; 50 μM compound,< 20%
same,inhibition at 5 µM,CLK4; 5 μM compound,> 50%
same,inhibition at 50 µM,CLK4; 50 μM compound,> 50%
same,inhibition at 5 µM,GSK3 β; 5 μM compound,< 20%
same,inhibition at 50 µM,GSK3 β; 50 μM compound,> 50%
same,inhibition at 5 µM,IKK α; 5 μM compound,< 20%
same,inhibition at 50 µM,IKK α; 50 μM compound,< 20%
same,inhibition at 5 µM,IKK β; 5 μM compound,< 20%
same,inhibition at 50 µM,IKK β; 50 μM compound,31 to 50%
same,inhibition at 5 µM,JAK2; 5 μM compound,< 20%
same,inhibition at 50 µM,JAK2; 50 μM compound,> 50%
same,inhibition at 5 µM,JAK3; 5 μM compound,< 20%
same,inhibition at 50 µM,JAK3; 50 μM compound,20 to 30%
same,inhibition at 5 µM,LCK; 5 μM compound,< 20%
same,inhibition at 50 µM,LCK; 50 μM compound,31 to 50%
same,inhibition at 5 µM,SYK; 5 μM compound,< 20%
same,inhibition at 50 µM,SYK; 50 μM compound,< 20%
same,inhibition at 5 µM,p38 α; 5 μM compound,< 20%
same,inhibition at 50 µM,p38 α; 50 μM compound,> 50%
same,inhibition at 5 µM,p38 β; 5 μM compound,< 20%
same,inhibition at 50 µM,p38 β; 50 μM compound,20 to 30%
same,inhibition at 0.2 µM,[5]; [9],15 to 30%
same,inhibition at 20 µM,[5]; [9],> 50%
same,"disease activity index (DAI) (cumulative scores of body weight, stool consistency and rectal bleeding)",[6]; 10 mg/kg oral gavage,17.4+12.0
same,"disease activity index (DAI) (cumulative scores of body weight, stool consistency and rectal bleeding)",[6]; 30 mg/kg oral gavage,15.4+4.9
same,EC50,[7],0.027 µM
same,effect on production of ICAM-1,ICAM-1,suppress the production
same,effect on production of IL-1α,IL-1α,suppress the production
same,effect on production of IL-8,IL-8,suppress the production
same,effect on production of VCAM-1,VCAM-1,suppress the production
CC(C)c1ccc(/C=C/c2ccccc2)cc1O [Compound 1],IC50,Jurkat cells [1],2.16 µM
same,IC50,MDA-MB-435 cells [2]; 48 hours,25 µM
same,IC50,THP1 cells; 48 hours,2.25 µM
